# Data as given in patent US11426397B2, “Piperidinyl- and piperazinyl-substituted heteroaromatic carboxamides as modulators of GPR6” (TAKEDA PHARMACEUTICAL COMPANY LIMITED, priority 2017, dated 2022).
# Molecular target: T1, GPR6 receptor expressed in CHO-K1 cells (Homo sapiens, UniProt P46095)
# T1 construct: expressed in transfected cells
# Test: In vitro inhibition of cAMP (EC50), cell-based HTRF cAMP assay
# Conditions: inhibition of constitutive cAMP activity of GPR6 in CHO-K1 cells
# Description: I. In Vitro Inhibition of cAMP (EC50)
# This cell based assay measures the ability of test compounds to inhibit the constitutive cAMP activity of GPR6 receptor expressed in CHO-K1 cells. CHO cells are stably expressed with GPR6 receptor, whose expression is controlled by a tetracycline inducible element. The cells were cultured in medium containing F12K, 10% FBS, 1% Penn/Strep, 200 μg/mL Hygromycin. GPR6 receptor expression is induced for 20 hours with 2 μg/mL doxycycline (Sigma D9891) in growth media. After addition of doxycycline, the cells are plated at a density of 450-750 cells per well in 96-well half-volume black tissue culture plates (Costar) and placed in an incubator (37° C., 5% CO2) for 20 hours prior to cAMP assays.
# Culture media is removed from the cells and they are washed with 50 μL/well of Ringer's Buffer (MgCl2 0.047 mg/mL, NaH2PO4 0.18 mg/mL, Na2HPO4 0.1 mg/mL, KCl 0.34 mg/mL, NaHCO3 1.26 mg/mL, D-glucose 1.8 mg/mL, NaCl 7 mg/mL; pH=7.4). The test compounds are suspended in DMSO, diluted in Ringer's Buffer containing 0.5% fatty acid free BSA plus 300 μM IBMX, and incubated on the cells for 45 minutes at 37° C. and 5% CO2. After incubation, the cells are conditioned for 10 minutes at room temp with Eu-cAMP tracer solution from a Perkin Elmer Lance HTRF Ultra cAMP assay kit (TRF0263). Then ULight™-anti-cAMP solution from the Lance HTRF kit is added and incubated on a shaker at room temp for 1 hour prior to HTRF detection in a Perkin Elmer Envision plate reader. EC50 curves are generated with a four-parameter logistic equation using GraphPad Prism 5.03.
# Table 1 lists biological assay data (in vitro inhibition of cAMP) for some of the compounds shown in the examples, where larger pEC50 values represent higher activity or potency. All of the compounds shown in Table 1 were tested in accordance with a cell-based assay which measures the ability of test compounds to inhibit the constitutive cAMP activity of GPR6 receptor expressed in CHO-K1 cells (reported as pEC50). The assay is described in the specification under the heading “In vitro inhibition of cAMP (EC50).”
# T1 sequence (P46095 whole entry): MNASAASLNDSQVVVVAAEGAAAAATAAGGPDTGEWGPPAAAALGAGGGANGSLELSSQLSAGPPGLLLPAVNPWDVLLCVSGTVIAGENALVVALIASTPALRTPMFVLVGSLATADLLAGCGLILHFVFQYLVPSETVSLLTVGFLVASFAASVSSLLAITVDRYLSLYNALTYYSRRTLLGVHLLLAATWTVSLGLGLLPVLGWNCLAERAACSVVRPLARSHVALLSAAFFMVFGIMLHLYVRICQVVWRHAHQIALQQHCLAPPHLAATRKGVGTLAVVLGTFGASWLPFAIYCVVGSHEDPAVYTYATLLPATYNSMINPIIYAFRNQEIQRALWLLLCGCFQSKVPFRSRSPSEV
row,"pEC50, in vitro inhibition of cAMP",SMILES
1,7.2,"COc1ccc(OC2CCN(c3ccc(S(C)(=O)=O)cc3NC(=O)c3cn(CCF)nc3OC)CC2)c(F)c1 [Example 1, V-(2-(4-(2-fluoro-4-methoxyphenoxy)piperidin-1-yl)-5-(methylsulfonyl)phenyl)-1-(2-fluoroethyl)-3-methoxy-1H-pyrazole-4-carboxamide]"
2,7.0,"COc1ccc(OC2CCN(c3ccc(S(C)(=O)=O)cc3NC(=O)c3cn(CF)nc3OC)CC2)c(F)c1 [Example 2, N-(2-(4-(2-fluoro-4-methoxyphenoxy)piperidin-1-yl)-5-(methylsulfonyl)phenyl)-1-(fluoromethyl)-3-methoxy-1H-pyrazole-4-carboxamide]"
3,7.5,"Cn1cccc(C(=O)Nc2cc(S(C)(=O)=O)ccc2N2CCC(Oc3ccc(F)cc3F)CC2)c1=O [Example 3, N-(2-(4-(2,4-difluorophenoxy)piperidin-1-yl)-5-(methylsulfonyl)phenyl)-1-methyl-2-oxo-1,2-dihydropyridine-3-carboxamide]"
4,6.7,"Cn1cccc(C(=O)Nc2cc(C#N)ccc2N2CCC(Oc3ccc(F)cc3)CC2)c1=O [Example 4, N-(5-cyano-2-(4-(4-fluorophenoxy)piperidin-1-yl)phenyl)-1-methyl-2-oxo-1,2-dihydropyridine-3-carboxamide]"
5,7.4,"COc1ncccc1C(=O)Nc1cc(S(C)(=O)=O)ccc1N1CCC(Oc2ccc(F)cc2F)CC1 [Example 5, N-(2-(4-(2,4-difluorophenoxy)piperidin-1-yl)-5-(methylsulfonyl)phenyl)-2-methoxynicotinamide]"
6,6.9,Cn1cccc(C(=O)Nc2cc(C#N)ccc2N2CCC(Oc3ccccc3F)CC2)c1=O [Example 8]
7,6.1,"Cn1cccc(C(=O)Nc2cc(C#N)ccc2N2CCC(Oc3cccc(F)c3F)CC2)c1=O [Example 9, N-(5-cyano-2-(4-(2,3-difluorophenoxy)piperidin-1-yl)phenyl)-1-methyl-2-oxo-1,2-dihydropyridine-3-carboxamide]"
8,6.9,COc1c(F)cccc1C(=O)Nc1cc(S(C)(=O)=O)ccc1N1CCC(Oc2ccc(F)cc2F)CC1 [Example 10]
9,6.7,COc1cccc(F)c1C(=O)Nc1cc(S(C)(=O)=O)ccc1N1CCC(Oc2ccc(F)cc2F)CC1 [Example 11]
10,6.4,"Cn1cccc(C(=O)Nc2cc(C#N)ccc2N2CCC(Oc3cccc(F)c3)CC2)c1=O [Example 12, N-(5-cyano-2-(4-(3-fluorophenoxy)piperidin-1-yl)phenyl)-1-methyl-2-oxo-1,2-dihydropyridine-3-carboxamide]"
11,6.3,"Cn1cccc(C(=O)Nc2cc(C#N)ccc2N2CCC(Oc3c(F)cccc3F)CC2)c1=O [Example 13, N-(5-cyano-2-(4-(2,6-difluorophenoxy)piperidin-1-yl)phenyl)-1-methyl-2-oxo-1,2-dihydropyridine-3-carboxamide]"
12,7.1,"Cn1cccc(C(=O)Nc2cc(C#N)ccc2N2CCC(Oc3cc(F)ccc3F)CC2)c1=O [Example 15, N-(5-cyano-2-(4-(2,5-difluorophenoxy)piperidin-1-yl)phenyl)-1-methyl-2-oxo-1,2-dihydropyridine-3-carboxamide]"
13,6.6,Cn1cccc(C(=O)Nc2cc(C#N)ccc2N2CCC(Oc3ccc(F)c(F)c3)CC2)c1=O [Example 16]
14,7.2,"Cn1cccc(C(=O)Nc2cnc(Cl)cc2N2CCC(Oc3ccc(F)cc3F)CC2)c1=O [Example 17, N-(6-chloro-4-(4-(2,4-difluorophenoxy)piperidin-1-yl)pyridin-3-yl)-1-methyl-2-oxo-1,2-dihydropyridine-3-carboxamide]"
15,6.7,"CNC(=O)c1cc(N2CCC(Oc3ccc(F)cc3F)CC2)c(NC(=O)c2cccnc2OC)cn1 [Example 19, 4-(4-(2,4-difluorophenoxy)piperidin-1-yl)-5-(2-methoxynicotinamido)-N-methylpicolinamide]"
16,7.4,"COc1cc(N2CCC(Oc3ccc(F)cc3F)CC2)c(NC(=O)c2cnccc2OC)cn1 [Example 21, N-(4-(4-(2,4-difluorophenoxy)piperidin-1-yl)-6-methoxypyridin-3-yl)-4-methoxynicotinamide]"

row,"pEC50, in vitro inhibition of cAMP",SMILES
1,7.1,"[2H]C([2H])([2H])N(C(=O)c1cc(N2CCC(Oc3ccc(F)cc3F)CC2)c(NC(=O)c2cccnc2OC)cn1)C([2H])([2H])[2H] [Example 22, 4-(4-(2,4-difluorophenoxy)piperidin-1-yl)-5-(2-methoxynicotinamido)-N,N-bis(methyl-d3)picolinamide]"
2,6.3,"COc1ncc(NC(=O)c2ccc(C)nc2OC)c(N2CCC(Oc3ccc(F)cc3F)CC2)n1 [Example 23, N-(4-(4-(2,4-difluorophenoxy)piperidin-1-yl)-2-methoxypyrimidin-5-yl)-2-methoxy-6-methylnicotinamide]"
3,6.2,"Cc1cc(=O)c(C(=O)Nc2cc(C#N)ccc2N2CCC(Oc3ccc(F)cc3F)CC2)cn1C [Example 24, N-(5-cyano-2-(4-(2,4-difluorophenoxy)piperidin-1-yl)phenyl)-1,6-dimethyl-4-oxo-1,4-dihydropyridine-3-carboxamide]"
4,7.0,"COc1cnccc1C(=O)Nc1cc(C#N)ccc1N1CCC(Oc2ccc(F)cc2F)CC1 [Example 25, N-(5-cyano-2-(4-(2,4-difluorophenoxy)piperidin-1-yl)phenyl)-3-methoxyisonicotinamide]"
5,6.4,"COc1cccnc1C(=O)Nc1cc(C#N)ccc1N1CCC(Oc2ccc(F)cc2F)CC1 [Example 26, N-(5-cyano-2-(4-(2,4-difluorophenoxy)piperidin-1-yl)phenyl)-3-methoxypicolinamide]"
6,7.4,"N#Cc1ccc(N2CCC(Oc3ccc(F)cc3F)CC2)c(NC(=O)c2cccc3c2OCC3)c1 [Example 27, N-(5-cyano-2-(4-(2,4-difluorophenoxy)piperidin-1-yl)phenyl)-2,3-dihydrobenzofuran-7-carboxamide]"
7,6.6,"CCOc1ncccc1C(=O)Nc1cc(C#N)ccc1N1CCC(Oc2ccc(F)cc2F)CC1 [Example 28, N-(5-cyano-2-(4-(2,4-difluorophenoxy)piperidin-1-yl)phenyl)-2-ethoxynicotinamide]"
8,7.3,"COc1ccc(OC2CCN(c3ccc(C#N)cc3NC(=O)c3cccn(C)c3=O)CC2)c(F)c1 [Example 29, N-(5-cyano-2-(4-(2-fluoro-4-methoxyphenoxy)piperidin-1-yl)phenyl)-1-methyl-2-oxo-1,2-dihydropyridine-3-carboxamide]"
9,7.2,"Cn1cccc(C(=O)Nc2ccc(S(C)(=O)=O)cc2N2CCC(Oc3ccc(F)cc3F)CC2)c1=O [Example 30, N-(2-(4-(2,4-difluorophenoxy)piperidin-1-yl)-4-(methylsulfonyl)phenyl)-1-methyl-2-oxo-1,2-dihydropyridine-3-carboxamide]"
10,7.0,COc1ncc(F)cc1C(=O)Nc1cnc(C(=O)N(C)C)cc1N1CCC(Oc2ccc(F)cc2F)CC1 [Example 32]
11,7.2,"COCc1cnc(N2CCN(Cc3ccc(F)cc3F)CC2)c(NC(=O)c2cccnc2OC)c1 [Example 33, N-(2-(4-(2,4-difluorobenzyl)piperazin-1-yl)-5-(methoxymethyl)pyridin-3-yl)-2-methoxynicotinamide]"
12,7.0,"COc1ncccc1C(=O)Nc1cc(CO)cnc1N1CCC(Oc2ccc(F)cc2F)CC1 [Example 34, N-(2-(4-(2,4-difluorophenoxy)piperidin-1-yl)-5-(hydroxymethyl)pyridin-3-yl)-2-methoxynicotinamide]"
13,7.4,"COc1ccncc1C(=O)Nc1cc(C)cnc1N1CCC(Oc2ccc(F)cc2F)CC1 [Example 35, N-(2-(4-(2,4-difluorophenoxy)piperidin-1-yl)-5-methylpyridin-3-yl)-4-methoxynicotinamide]"
14,7.0,"COc1nn(C)cc1C(=O)Nc1cc(C)cnc1N1CCC(Oc2ccc(F)cc2F)CC1 [Example 36, N-(2-(4-(2,4-difluorophenoxy)piperidin-1-yl)-5-methylpyridin-3-yl)-3-methoxy-1-methyl-1H-pyrazole-4-carboxamide]"
15,7.1,"COc1ncncc1C(=O)Nc1cc(C#N)ccc1N1CCC(Oc2ccc(F)cc2F)CC1 [Example 37, N-(5-cyano-2-(4-(2,4-difluorophenoxy)piperidin-1-yl)phenyl)-4-methoxypyrimidine-5-carboxamide]"
